System: 192522-019-R-J2-PDC complex tumor spheroid viability
Assay: Anticancer human tumor 192522-019-R-J2-PDC patient-derived colon adenocarcinoma cell line growth inhibition [POLQ]
Settings: for IC50: curve of first compound; for viability, T/C: stronger effect = lower value
Procedure, shortened: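 Complex spheroid viability model combining PDC tumour cells with endothelial (HUVEC) and MSC stromal cells. Novobiocin, ART-558 or RP6685 were tested singly and in combination with standard and investigational anticancer drugs. Each was titrated in half-log steps from near clinical Cmax, or from 10 microM where Cmax was unknown.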
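Also: spheroids exposed to drugs for seven days before reading.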
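For viability, T/C in this document: 100% = DMSO vehicle control viability in luminescence.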

CC(=O)O[C@H]1C(=O)[C@@]2(C)[C@H]([C@H](OC(=O)c3ccccc3)[C@]3(O)C[C@H](OC(=O)[C@H](O)[C@@H](NC(=O)c4ccccc4)c4ccccc4)C(C)=C1C3(C)C)[C@]1(OC(C)=O)CO[C@@H]1C[C@@H]2O + COC1C(OC(N)=O)C(O)C(Oc2ccc3c(O)c(NC(=O)c4ccc(O)c(CC=C(C)C)c4)c(=O)oc3c2C)OC1(C)C
IC50 (second compound 0.0316 µM): > 3 µM | IC50 (second compound 0.1 µM): > 3 µM | IC50 (second compound 0.316 µM): > 3 µM | IC50 (second compound 1 µM): > 3 µM | IC50 (second compound 3.16 µM): > 3 µM | IC50 (second compound 10 µM): > 3 µM | viability, T/C (second compound 0.0316 µM, first compound 0.00949 µM): 94.2% | viability, T/C (second compound 0.0316 µM, first compound 0.03 µM): 72.8% | viability, T/C (second compound 0.0316 µM, first compound 0.0949 µM): 56.6% | viability, T/C (second compound 0.0316 µM, first compound 0.3 µM): 55.9% | viability, T/C (second compound 0.0316 µM, first compound 0.949 µM): 55.2% | viability, T/C (second compound 0.0316 µM, first compound 3 µM): 48.5% | viability, T/C (second compound 0.1 µM, first compound 0.00949 µM): 95.6% | viability, T/C (second compound 0.1 µM, first compound 0.03 µM): 74.7% | viability, T/C (second compound 0.1 µM, first compound 0.0949 µM): 59.5% | viability, T/C (second compound 0.1 µM, first compound 0.3 µM): 54.7% | viability, T/C (second compound 0.1 µM, first compound 0.949 µM): 51.6% | viability, T/C (second compound 0.1 µM, first compound 3 µM): 56.9% | viability, T/C (second compound 0.316 µM, first compound 0.00949 µM): 91.6% | viability, T/C (second compound 0.316 µM, first compound 0.03 µM): 78.1% | viability, T/C (second compound 0.316 µM, first compound 0.0949 µM): 59.6% | viability, T/C (second compound 0.316 µM, first compound 0.3 µM): 61.9% | viability, T/C (second compound 0.316 µM, first compound 0.949 µM): 54.6% | viability, T/C (second compound 0.316 µM, first compound 3 µM): 52.4% | viability, T/C (second compound 1 µM, first compound 0.00949 µM): 102% | viability, T/C (second compound 1 µM, first compound 0.03 µM): 80.6% | viability, T/C (second compound 1 µM, first compound 0.0949 µM): 56.6% | viability, T/C (second compound 1 µM, first compound 0.3 µM): 52.7% | viability, T/C (second compound 1 µM, first compound 0.949 µM): 56.1% | viability, T/C (second compound 1 µM, first compound 3 µM): 54% | viability, T/C (second compound 3.16 µM, first compound 0.00949 µM): 99.1% | viability, T/C (second compound 3.16 µM, first compound 0.03 µM): 84.6% | viability, T/C (second compound 3.16 µM, first compound 0.0949 µM): 61.5% | viability, T/C (second compound 3.16 µM, first compound 0.3 µM): 55.8% | viability, T/C (second compound 3.16 µM, first compound 0.949 µM): 56.1% | viability, T/C (second compound 3.16 µM, first compound 3 µM): 59.7% | viability, T/C (second compound 10 µM, first compound 0.00949 µM): 102% | viability, T/C (second compound 10 µM, first compound 0.03 µM): 76.8% | viability, T/C (second compound 10 µM, first compound 0.0949 µM): 57.1% | viability, T/C (second compound 10 µM, first compound 0.3 µM): 55.4% | viability, T/C (second compound 10 µM, first compound 0.949 µM): 64% | viability, T/C (second compound 10 µM, first compound 3 µM): 63.1%

COc1cc2cc(C(=O)CCC(=O)O)sc2cc1OC + Nc1ccc(C#CCN(C(=O)Cc2ncc(C(F)(F)F)cc2C(F)(F)F)c2ccc(F)cc2)nn1
IC50 (second compound 0.0316 µM): > 10 µM | IC50 (second compound 0.1 µM): > 10 µM | IC50 (second compound 0.316 µM): > 10 µM | IC50 (second compound 1 µM): > 10 µM | IC50 (second compound 3.16 µM): > 10 µM | IC50 (second compound 10 µM): > 10 µM | viability, T/C (second compound 0.0316 µM, first compound 0.0316 µM): 102% | viability, T/C (second compound 0.0316 µM, first compound 0.1 µM): 105% | viability, T/C (second compound 0.0316 µM, first compound 0.316 µM): 95.4% | viability, T/C (second compound 0.0316 µM, first compound 1 µM): 99.6% | viability, T/C (second compound 0.0316 µM, first compound 3.16 µM): 105% | viability, T/C (second compound 0.0316 µM, first compound 10 µM): 89% | viability, T/C (second compound 0.1 µM, first compound 0.0316 µM): 102% | viability, T/C (second compound 0.1 µM, first compound 0.1 µM): 92.1% | viability, T/C (second compound 0.1 µM, first compound 0.316 µM): 97.9% | viability, T/C (second compound 0.1 µM, first compound 1 µM): 101% | viability, T/C (second compound 0.1 µM, first compound 3.16 µM): 99.4% | viability, T/C (second compound 0.1 µM, first compound 10 µM): 87.3% | viability, T/C (second compound 0.316 µM, first compound 0.0316 µM): 102% | viability, T/C (second compound 0.316 µM, first compound 0.1 µM): 102% | viability, T/C (second compound 0.316 µM, first compound 0.316 µM): 105% | viability, T/C (second compound 0.316 µM, first compound 1 µM): 100% | viability, T/C (second compound 0.316 µM, first compound 3.16 µM): 93.8% | viability, T/C (second compound 0.316 µM, first compound 10 µM): 91.8% | viability, T/C (second compound 1 µM, first compound 0.0316 µM): 102% | viability, T/C (second compound 1 µM, first compound 0.1 µM): 98.5% | viability, T/C (second compound 1 µM, first compound 0.316 µM): 100% | viability, T/C (second compound 1 µM, first compound 1 µM): 98.8% | viability, T/C (second compound 1 µM, first compound 3.16 µM): 104% | viability, T/C (second compound 1 µM, first compound 10 µM): 103% | viability, T/C (second compound 3.16 µM, first compound 0.0316 µM): 103% | viability, T/C (second compound 3.16 µM, first compound 0.1 µM): 103% | viability, T/C (second compound 3.16 µM, first compound 0.316 µM): 104% | viability, T/C (second compound 3.16 µM, first compound 1 µM): 93.3% | viability, T/C (second compound 3.16 µM, first compound 3.16 µM): 103% | viability, T/C (second compound 3.16 µM, first compound 10 µM): 103% | viability, T/C (second compound 10 µM, first compound 0.0316 µM): 109% | viability, T/C (second compound 10 µM, first compound 0.1 µM): 97.4% | viability, T/C (second compound 10 µM, first compound 0.316 µM): 108% | viability, T/C (second compound 10 µM, first compound 1 µM): 103% | viability, T/C (second compound 10 µM, first compound 3.16 µM): 114% | viability, T/C (second compound 10 µM, first compound 10 µM): 102%

— PubChem BioAssay AID1963850 (Molecular Pharmacology Branch, DTP, NCI, 2024)
